# Reference: patent US20220280405A1, “NOVEL COMPOUNDS FOR SKIN LIGHTENING” (Conopco, Inc. , d/b/a UNILEVER, priority 2019, published 2022)
# Test system: Melanoderm human tissue (MEL-300-B, Mattek Corp.)
# Assay: Melanoderm assay (melanin quantitation)
# Assay type: cell-based
# Details: for Melanin (μg/μg protein): 12 d dosing, melanin normalized to protein, mean +/− standard deviation, n = 3
# Procedure: Control compounds consisted of a negative control (ultrapure water), vehicle control (DMSO in ultrapure water—final concentration of 0.1%) and positive control (2% kojic acid in ultrapure water—final concentration of 700 uM). Test compounds where prepared in DMSO at 10 mM concentrations and diluted with EPI-100-LLMM media (Mattek Corp.) to a final concentration of 10 uM. Melanoderm human tissue (MEL-300-B, Mattek Corp.) was equilibrated with EPI-100-NMM media for 24 h, followed by equilibration with EPI-100-LLMM media for 48 h prior to treatment with test compounds and controls. Dosing and re-feeding of melanoderms with controls and test compounds continued for a total of 12 d following standard protocols and the melanoderms collected for melanin quantitation, viability analysis and macroscopic/microscopic imaging analysis. For melanin quantitation, tissues were suspended in PBS buffer (5 ml) for 5 min, removed from the PBS and washed/rinsed with additional PBS (2 ml). Tissues were treated with 1% sodium bicarbonate solution (300 ul) for 30 min, followed by removal of the sodium bicarbonate solution and washed/rinsed with PBS solution (2×2 ml). Tissues were suspended in Solvable reagent (500 ul) and incubated at 95° C. for 24 h along with melanin standard samples (prepared by suspending melanin (cat # M8631, Sigma-Aldrich) in Solvable reagent to generate melanin standards at 0, 2.5, 5, 10, 25, 50 and 100 ug). All incubated samples were centrifuged at 13000 rpm for 5 min and the optical density of the supernatant was read/determined at 490 nm. The amount of melanin (ug) from each tissue sample was determined from the melanin standard samples calibration curve. Protein concentration of tissue samples was determined using the BCA protein assay kit (Pierce) and melanin content was normalized and expressed as melanin (ug)/protein (ug) (Table 1). Tissue viability as a result of test compound dosing/feeding relative to negative and vehicle controls was determined using the WST-1 reagent kit (cat # 05015944001, Roche). […]
structure (smiles),measurement,setting,value
"CC(C)Oc1ccc(C(NC2CCOCC2)C2CCCCC2)cc1 (stereo not drawn) [Compound of example 1, N-(cyclohexyl(4-isopropoxyphenyl)methyl)tetrahydro-2H-pyran-4-amine]",melanin content / skin lightening effect (in words),"melanoderm treatment, 10 uM, compared to vehicle control",reduced melanin content
same,Melanin (μg/μg protein),test compound 10 uM,0.177 +/− 0.019 μg/μg protein
"O=c1cc(CO)occ1O [Kojic acid, reference compound]",Melanin (μg/μg protein),positive control 700 μM,0.128 +/− 0.004 μg/μg protein
